Test results reported in patent publication US8278346B2, “Di-tin fused thiophene compounds and polymers and methods of making” (Corning Incorporated, priority 2010, dated 2012).

Assay: Solubility of FT4 compounds and polymer in organic solvents
Type: physicochemical
Conditions: for solubility in diethyl ether / solubility in hexane: room temperature
Excerpt: Table 2 provides solubility properties and a solubility comparison of di-Br compound 7 and di-tin compound 8.

SMILES | solubility in direct comparisons to compound 8 (Table 2 solvents) | solubility in diethyl ether | solubility in hexane | solubility in hexane, toluene, CH2Cl2, or mixtures thereof (compared to the corresponding di-bromo compound Br-DC17FT4-Br)
CCCCCCCCCCCCCCCCCc1c(Br)sc2c1sc1c3sc(Br)c(CCCCCCCCCCCCCCCCC)c3sc21 [compound 7] | essentially insoluble or only partially soluble | practically insoluble | practically insoluble | –
CCCCCCCCCCCCCCCCCc1[c]([Sn]([CH3])([CH3])[CH3])sc2c1sc1c3s[c]([Sn]([CH3])([CH3])[CH3])c(CCCCCCCCCCCCCCCCC)c3sc21 [compound 8] | – | freely soluble | freely soluble | excellent solubility
